These results are taken from patent publication US11547697B2, “Heterocyclic compounds and uses thereof” (MILLENNIUM PHARMACEUTICALS, INC., priority 2009, dated 2023).

In one series the test system is HCT116 cells. The series can be described thus: Cell arrest assay, alone and in combination with MEK inhibitor. In kind it is cell-based, human. The conditions noted are these: 3 μM compound 54 or 0.3 μM PD0325901, 20 hours. How it is done:
Cells are then incubated in the presence of DMSO or inhibitor for 20 hours. The number of cells at each stage in the cell cycle is determined and expressed as a percent of the total, with an increase in the number of cells arrested at pre-GO/G1 indicating effective inhibition of cell cycle progression.

The test system of series [1] is lupus disease model mice (R2KO, BXSB or MLR/lpr). The conditions noted are these: B6.Sle1z.Sle3z model (T. Wu et al.); cited from earlier work.
The conditions of series [2]: 5 μM, PBS pH 7.4, 37° C., 24 hours; cited from earlier work.
A further series deals with p110α/p85α (Homo sapiens (Human), UniProt P42336). The series can be described thus: PI 3-Kinase (human) HTRF assay, p110α/p85α. In kind it is biochemical. The conditions noted are these: read-out: PI3K α IC50. (In general: Time-resolved FRET reads energy transfer from a long-lived donor to a nearby acceptor.)
The next series deals with p110γ (Homo sapiens (Human), UniProt P48736). As to the kind of experiment: PI 3-Kinase (human) HTRF assay, p110γ. The conditions noted are these: read-out: PI3K γ IC50. In kind it is biochemical.
The subject of series [3] is Human tumor cell lines (e.g., MCF7, U-87 MG, MDA-MB-468, PC-3). As to the kind of experiment: Tumor cell line proliferation assay (Alamar Blue). In kind it is cell-based. The note with it: PC3 cells. How it is done: The ability of one or more subject compounds to inhibit tumor cell line proliferation is determined according to standard procedures known in the art. For instance, an in vitro cellular proliferation assay can be performed to measure the metabolic activity of live cells. The assay is performed in a 96 well microtiter plate using Alamar Blue reduction. Human tumor cell lines are obtained from ATCC (e.g., MCF7, U-87 MG, MDA-MB-468, PC-3), grown to confluency in T75 flasks, trypsinized with 0.25% trypsin, washed one time with Tumor Cell Media (DMEM+10% FBS), and plated in 90 ul at 5,000 cells/well in Tumor Cell Media. A compound disclosed herein is diluted in Tumor Cell Media and added in a 10 ul volume. Plates are incubated for 72 hours at 37 C and 5% CO2. A volume of 10 uL of Alamar Blue reagent is added to each well and plates are incubated for 3 hours at 37 C and 5% CO2. Alamar Blue fluoresce is read at 560Ex/590Em, and IC50 values are calculated using GraphPad Prism 5.
(The colour change of resazurin is a common sign of viable cells or microbes.)

The next series addresses p110δ/p85α (Homo sapiens (Human), UniProt O00329). The series can be described thus: PI 3-Kinase (human) HTRF assay, p110δ/p85α. In kind it is biochemical. The note with it: read-out: PI3K δ IC50.
A further series addresses p110β/p85α (Homo sapiens (Human), UniProt P42338). The series can be described thus: PI 3-Kinase (human) HTRF assay, p110β/p85α. Format: biochemical. The conditions noted are these: read-out: PI3K β IC50.
The next series deals with recombinant mTOR (Homo sapiens (Human), UniProt P42345). The series can be described thus: mTOR inhibition assay (radiometric or LanthaScreen TR-FRET). In kind it is biochemical. The conditions noted are these: read-out: MTORC IC50.
Series [4] relates to tumor cells with a PI3Kα mutation (e.g., MDA-MB-361 and T47D). The series can be described thus: Proliferation of tumor cells with PI3Kα mutation. In kind it is cell-based. The note with it: Homo sapiens, T47D cells.
Series [5] deals with p190 transduced leukemic cells. The conditions noted are these: about 70 mg/kg twice daily, p190 model; cited from earlier work.
For series [6] the following is noted: 5 μM, human plasma, 37° C.; cited from earlier work.
The subject of series [7] is PI3K/Akt/mTor signaling in blood cells. The series can be described thus: Kinase signaling in blood (phosflow). In kind it is cell-based. The note with it: splenocytes or peripheral blood mononuclear cells, anti-CD3 stimulation. How it is done:
PI3K/Akt/mTor signaling is measured in blood cells using the phosflow method (Methods Enzymol. 2007; 434:131-54). The advantage of this method is that it is by nature a single cell assay so that cellular heterogeneity can be detected rather than population averages. This allows concurrent distinction of signaling states in different populations defined by other markers. Phosflow is also highly quantitative. To test the effects of one or more compounds disclosed herein, unfractionated splenocytes, or peripheral blood mononuclear cells are stimulated with anti-CD3 to initiate T-cell receptor signaling. The cells are then fixed and stained for surface markers and intracellular phosphoproteins.
Similarly, aliquots of whole blood are incubated for 15 minutes with vehicle (e.g., 0.1% DMSO) or kinase inhibitors at various concentrations, before addition of stimuli to crosslink the T cell receptor (TCR) (anti-CD3 with secondary antibody) or the B cell receptor (BCR) using anti-kappa light chain antibody (Fab′2 fragments). After approximately 5 and 15 minutes, samples are fixed (e.g., with cold 4% paraformaldehyde) and used for phosflow. […] The level of phosphrylation of kinase substrates such as Akt and S6 are then measured by incubating the fixed cells with labeled antibodies specific to the phosphorylated isoforms of these proteins. The population of cells is then analyzed by flow cytometry.

[8] abbreviates: read-out: PC3 proliferation (nM)*.
Where [9] appears, read: read-out: T47D proliferation IC50.
Where [10] appears, read: read-out: PC3 proliferation IC50.

The structures appear in SMILES notation. Like-named read-outs stand apart in the source and are kept apart here.

p110γ, sequence (P48736 whole entry): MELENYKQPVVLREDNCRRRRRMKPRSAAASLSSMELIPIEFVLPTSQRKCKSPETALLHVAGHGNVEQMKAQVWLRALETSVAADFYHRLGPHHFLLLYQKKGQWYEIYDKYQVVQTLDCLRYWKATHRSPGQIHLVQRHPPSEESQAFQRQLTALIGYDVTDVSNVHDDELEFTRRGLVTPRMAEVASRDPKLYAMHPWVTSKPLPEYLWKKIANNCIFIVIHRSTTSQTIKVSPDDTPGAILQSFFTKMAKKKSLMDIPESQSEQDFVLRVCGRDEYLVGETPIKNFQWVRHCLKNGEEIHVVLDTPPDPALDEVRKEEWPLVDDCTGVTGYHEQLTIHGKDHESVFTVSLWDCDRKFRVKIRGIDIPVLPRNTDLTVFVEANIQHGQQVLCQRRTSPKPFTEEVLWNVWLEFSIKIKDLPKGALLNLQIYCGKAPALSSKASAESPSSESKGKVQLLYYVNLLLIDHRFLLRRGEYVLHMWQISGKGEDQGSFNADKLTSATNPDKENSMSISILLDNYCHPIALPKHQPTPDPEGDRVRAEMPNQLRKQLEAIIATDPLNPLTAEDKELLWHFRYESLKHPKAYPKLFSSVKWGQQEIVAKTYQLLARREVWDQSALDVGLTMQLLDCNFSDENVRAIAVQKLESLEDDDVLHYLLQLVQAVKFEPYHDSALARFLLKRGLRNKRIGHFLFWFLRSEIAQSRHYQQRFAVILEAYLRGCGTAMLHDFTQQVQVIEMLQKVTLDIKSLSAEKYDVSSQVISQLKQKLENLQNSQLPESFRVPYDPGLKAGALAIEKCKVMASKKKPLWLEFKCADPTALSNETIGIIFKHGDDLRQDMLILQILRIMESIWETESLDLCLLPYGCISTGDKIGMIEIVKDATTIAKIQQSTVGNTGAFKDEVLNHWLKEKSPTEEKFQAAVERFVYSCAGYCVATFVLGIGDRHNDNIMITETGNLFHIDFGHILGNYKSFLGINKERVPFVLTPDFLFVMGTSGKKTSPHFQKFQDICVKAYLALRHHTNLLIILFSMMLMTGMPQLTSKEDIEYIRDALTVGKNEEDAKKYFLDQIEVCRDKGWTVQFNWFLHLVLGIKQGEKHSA
recombinant mTOR, sequence (P42345 1360-2549): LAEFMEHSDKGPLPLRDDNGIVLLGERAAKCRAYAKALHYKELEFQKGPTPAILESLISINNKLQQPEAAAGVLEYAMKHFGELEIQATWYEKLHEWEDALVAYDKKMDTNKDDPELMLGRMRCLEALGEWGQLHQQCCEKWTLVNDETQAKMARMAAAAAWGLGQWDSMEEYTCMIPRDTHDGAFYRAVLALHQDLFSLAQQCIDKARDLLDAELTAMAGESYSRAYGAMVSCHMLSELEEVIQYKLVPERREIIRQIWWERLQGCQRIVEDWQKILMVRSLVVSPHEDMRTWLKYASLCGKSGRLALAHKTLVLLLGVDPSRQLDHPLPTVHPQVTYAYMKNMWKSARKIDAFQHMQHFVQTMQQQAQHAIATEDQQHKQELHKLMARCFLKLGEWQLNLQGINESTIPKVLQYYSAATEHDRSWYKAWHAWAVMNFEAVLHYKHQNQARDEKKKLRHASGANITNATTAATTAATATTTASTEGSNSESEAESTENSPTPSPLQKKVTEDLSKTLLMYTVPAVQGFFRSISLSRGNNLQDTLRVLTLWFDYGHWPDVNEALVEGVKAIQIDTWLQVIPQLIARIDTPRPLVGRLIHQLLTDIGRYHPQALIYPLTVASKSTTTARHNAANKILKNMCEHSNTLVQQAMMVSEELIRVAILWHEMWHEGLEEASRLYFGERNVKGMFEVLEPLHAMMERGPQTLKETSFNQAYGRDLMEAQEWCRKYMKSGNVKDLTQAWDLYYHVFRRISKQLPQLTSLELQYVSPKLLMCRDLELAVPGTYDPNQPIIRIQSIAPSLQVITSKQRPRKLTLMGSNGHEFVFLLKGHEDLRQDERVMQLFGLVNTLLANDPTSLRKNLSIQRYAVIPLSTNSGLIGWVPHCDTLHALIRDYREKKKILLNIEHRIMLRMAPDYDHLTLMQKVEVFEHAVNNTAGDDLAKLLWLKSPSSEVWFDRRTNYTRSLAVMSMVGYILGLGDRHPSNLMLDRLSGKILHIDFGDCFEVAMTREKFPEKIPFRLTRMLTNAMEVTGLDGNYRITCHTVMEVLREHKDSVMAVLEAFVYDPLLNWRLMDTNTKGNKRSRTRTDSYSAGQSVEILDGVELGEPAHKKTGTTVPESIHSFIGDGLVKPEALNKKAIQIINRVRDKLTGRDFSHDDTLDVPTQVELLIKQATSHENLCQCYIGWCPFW
p110β/p85α, sequence (P42338 whole entry): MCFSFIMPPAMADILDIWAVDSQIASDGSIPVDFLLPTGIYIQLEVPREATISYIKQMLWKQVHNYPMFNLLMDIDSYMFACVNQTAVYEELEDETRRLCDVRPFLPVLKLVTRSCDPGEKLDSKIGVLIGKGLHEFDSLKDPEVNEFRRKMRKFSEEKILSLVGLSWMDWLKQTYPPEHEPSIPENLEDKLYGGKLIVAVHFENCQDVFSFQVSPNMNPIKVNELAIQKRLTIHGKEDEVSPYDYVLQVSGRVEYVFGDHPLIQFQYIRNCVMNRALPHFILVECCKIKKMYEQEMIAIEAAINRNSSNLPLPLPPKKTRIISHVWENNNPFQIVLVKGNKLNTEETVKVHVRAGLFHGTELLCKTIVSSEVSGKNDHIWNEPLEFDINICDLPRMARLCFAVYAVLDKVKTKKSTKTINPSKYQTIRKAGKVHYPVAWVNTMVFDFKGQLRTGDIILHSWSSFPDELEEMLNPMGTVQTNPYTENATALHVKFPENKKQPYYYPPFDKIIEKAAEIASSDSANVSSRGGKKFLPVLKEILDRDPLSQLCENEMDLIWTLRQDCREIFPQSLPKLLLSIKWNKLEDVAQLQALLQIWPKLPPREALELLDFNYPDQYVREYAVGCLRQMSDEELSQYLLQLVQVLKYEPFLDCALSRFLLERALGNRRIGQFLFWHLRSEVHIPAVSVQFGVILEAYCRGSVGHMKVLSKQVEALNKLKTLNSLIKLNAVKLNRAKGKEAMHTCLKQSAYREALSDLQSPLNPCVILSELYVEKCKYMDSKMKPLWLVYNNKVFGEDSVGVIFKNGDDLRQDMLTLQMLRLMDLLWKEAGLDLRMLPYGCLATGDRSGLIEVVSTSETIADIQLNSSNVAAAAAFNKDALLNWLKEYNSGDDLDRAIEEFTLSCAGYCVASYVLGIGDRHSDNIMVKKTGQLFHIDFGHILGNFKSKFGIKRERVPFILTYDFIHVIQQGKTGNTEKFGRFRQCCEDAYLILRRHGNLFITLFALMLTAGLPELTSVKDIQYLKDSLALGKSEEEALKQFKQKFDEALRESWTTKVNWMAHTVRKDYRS
p110β/p85α, sequence (P27986 whole entry partner): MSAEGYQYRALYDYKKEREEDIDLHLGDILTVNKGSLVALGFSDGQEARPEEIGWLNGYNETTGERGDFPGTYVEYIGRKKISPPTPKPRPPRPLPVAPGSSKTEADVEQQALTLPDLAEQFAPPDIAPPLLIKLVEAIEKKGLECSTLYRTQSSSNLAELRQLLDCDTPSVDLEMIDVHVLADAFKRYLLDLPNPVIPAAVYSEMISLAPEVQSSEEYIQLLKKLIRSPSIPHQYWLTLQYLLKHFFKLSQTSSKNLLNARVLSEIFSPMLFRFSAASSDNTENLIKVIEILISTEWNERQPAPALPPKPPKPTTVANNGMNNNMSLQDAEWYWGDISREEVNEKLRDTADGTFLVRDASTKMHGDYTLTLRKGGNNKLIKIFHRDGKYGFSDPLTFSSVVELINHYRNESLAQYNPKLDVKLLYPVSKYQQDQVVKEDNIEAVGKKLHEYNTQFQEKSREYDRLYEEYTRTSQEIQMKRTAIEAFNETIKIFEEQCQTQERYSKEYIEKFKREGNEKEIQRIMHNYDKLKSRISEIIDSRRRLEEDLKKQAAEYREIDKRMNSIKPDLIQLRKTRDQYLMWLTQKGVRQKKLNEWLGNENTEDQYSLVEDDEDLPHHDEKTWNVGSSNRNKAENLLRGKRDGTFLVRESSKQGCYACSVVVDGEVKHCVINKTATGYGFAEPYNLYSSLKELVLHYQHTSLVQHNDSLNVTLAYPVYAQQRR
Description for recombinant mTOR: The compounds described herein can be tested against recombinant mTOR (Invitrogen) in an assay containing 50 mM HEPES, pH 7.5, 1 mM EGTA, 10 mM MgCl2, 2.5 mM, 0.01% Tween, 10 pM ATP (2.5 μCi of μ-32P-ATP), and 3 μg/mL BSA. R^at recombinant PHAS-1/4EBP1 (Calbiochem; 2 mg/mL) is used as a substrate. Reactions are terminated by spotting onto nitrocellulose, which is washed with 1M NaCl/1% phosphoric acid (approximately 6 times, 5-10 minutes each). Sheets are dried and the transferred radioactivity quantitated by phosphorimaging.
For instance, one can use Invitrogen's LanthaScreen™ Kinase assay to test the inhibitors of mTOR disclosed herein. This assay is a time resolved FRET platform that measures the phosphorylation of GFP labeled 4EBP1 by mTOR kinase. The kinase reaction is performed in a white 384 well microtitre plate. The total reaction volume is 20 ul per well and the reaction buffer composition is 50 mM HEPES pH7.5, 0.01% Polysorbate 20, 1 mM EGTA, 10 mM MnCl2, and 2 mM DTT. In the first step, each well receives 2 ul of test compound in 20% dimethylsulphoxide resulting in a 2% DMSO final concentration. Next, 8 ul of mTOR diluted in reaction buffer is added per well for a 60 ng/ml final concentration. To start the reaction, 10 ul of an ATP/GFP-4EBP1 mixture (diluted in reaction buffer) is added per well for a final concentration of 10 μM ATP and 0.5 μM GFP-4EBP1. The plate is sealed and incubated for 1 hour at room temperature. […] The plate is sealed, incubated for 1 hour at room temperature, and then read on a plate reader set up for LanthaScreen™ TR-FRET. Data is analyzed and IC50s are generated using GraphPad Prism 5.

Consider `O=C(NOC[C@H](O)CO)c1ccc(F)c(F)c1Nc1ccc(I)cc1F` [PD0325901, reference compound], for which the “Cell cycle arrest, single inhibitor versus DMSO control” value in the series on HCT116 cells is given as “some increase in cell cycle arrest by comparison to DMSO control”.

Take `CO[C@H]1C[C@@H]2CC[C@@H](C)[C@@](O)(O2)C(=O)C(=O)N2CCCC[C@H]2C(=O)O[C@H]([C@H](C)C[C@@H]2CC[C@@H](OCCO)[C@H](OC)C2)CC(=O)[C@H](C)/C=C(\C)[C@@H](O)[C@@H](OC)C(=O)[C@H](C)C[C@H](C)/C=C/C=C/C=C/1C` [RAD001]: the “Effect on lupus symptoms” value in [1] is “ameliorate lupus symptoms”.

Consider `O=C(O)CCCc1ccc(N(CCCl)CCCl)cc1` [chlorambucil, 4-[bis(2-chloroethyl)amino]benzenebutanoic acid], for which the “Chemical stability of reference compound” value in series [2] is reported as “largely hydrolyzed over the course of 24 hours”.

Regarding `CC(=O)Nc1nc2ccc(-c3ccc4nccc(-c5ccncc5)c4c3)cc2s1` [compound 2], the IC50 is less than 1000 nM on p110α/p85α, less than 1000 nM on p110γ and less than 10000 nM in series [3] (setting [8]).

As for `Nc1nc2ccc(-c3ccc4nccc(-c5ccncc5)c4c3)cc2o1` [compound 4], the IC50 at p110α/p85α is less than 100 nM; at p110δ/p85α, less than 100 nM; on p110γ, less than 100 nM; on p110β/p85α, less than 100 nM; in series [3] (setting [8]), less than 100 nM; on recombinant mTOR it was less than 1000 nM.

Take `Nc1nc2cc(-c3ccc4ncc(-c5ccncc5)n4c3)ccc2o1` [compound 6]: the IC50 was less than 100 nM at p110α/p85α; less than 1000 nM on p110δ/p85α; less than 100 nM at p110γ; less than 1000 nM in [4] (read-out: T47D proliferation); less than 10000 nM on p110β/p85α; less than 10000 nM in [3] (setting [8]). In addition, the IC50 on recombinant mTOR was less than 10000 nM.

Take `Cn1c(=O)n(-c2ccc(C(C)(C)C#N)cc2)c2c3cc(-c4ccc5oc(N)nc5c4)ccc3ncc21` [compound 7]: the IC50 (on p110α/p85α; at p110δ/p85α; at p110γ; at p110β/p85α; in series [3] (setting [8]); on recombinant mTOR) was less than 100 nM in each case.

In the case of `Nc1nc2cc(-c3ccc4ncc(-c5ccncc5)n4n3)ccc2o1` [compound 10], the IC50 is less than 100 nM at p110α/p85α; less than 100 nM at p110γ; less than 1000 nM in series [4] (read-out: T47D proliferation); less than 1000 nM on p110β/p85α; less than 1000 nM in series [3] (setting [8]); less than 1000 nM at recombinant mTOR.

For the molecule `CS(=O)(=O)N1CCN(Cc2cc3nc(-c4ccc5oc(N)nc5c4)nc(N4CCOCC4)c3s2)CC1` [compound 129], the IC50 on p110α/p85α is less than 100 nM; at p110δ/p85α, less than 1000 nM; at p110γ it was less than 100 nM; on p110β/p85α, less than 1000 nM; in series [3] (setting [8]), less than 1000 nM; on recombinant mTOR, less than 1000 nM.

`CN1CCC(N(C)C(=O)c2cnc3ccc(-c4ccc5oc(N)nc5c4)cn23)CC1` [compound 165]: the IC50 is less than 1000 nM at p110α/p85α, less than 10000 nM at p110δ/p85α, less than 10000 nM on p110β/p85α and less than 1000 nM in series [3] (setting [8]).

In the case of `CC(=O)Nc1nc2ccc(-c3ccc4oc(N)nc4c3)cc2s1` [compound 231], the IC50 was less than 100 nM at p110α/p85α (in vitro); less than 100 nM on p110δ/p85α (in vitro); less than 100 nM on p110γ (in vitro); less than 1000 nM in series [4] (setting [9]); less than 1000 nM on p110β/p85α (in vitro); less than 10000 nM in series [3] (setting [10]). Besides, at recombinant mTOR (in vitro), the IC50 is less than 10000 nM.

On to `CC(=O)Nc1cn2cc(-c3ccc4oc(N)nc4c3)ccc2n1` [compound 234], for which the IC50 at p110α/p85α (in vitro) is less than 100 nM; on p110δ/p85α (in vitro), less than 100 nM; at p110γ (in vitro), less than 100 nM; in series [4] (setting [9]), less than 1000 nM; on p110β/p85α (in vitro), less than 1000 nM; in series [3] (setting [10]), less than 100 nM. On recombinant mTOR (in vitro), the IC50 was less than 1000 nM.

In the case of `Cc1ccc(NC(=O)c2ccc(CN3CCN(C)CC3)cc2)cc1Nc1nccc(-c2cccnc2)n1` [imatinib], the Effect on leukemogenesis entry in series [5] was “delay but not cure leukemogenesis”.

`CC(C)[N+](C)(CCOC(=O)C1c2ccccc2Oc2ccccc21)C(C)C` [propantheline]: in [6], the “Plasma stability of control compounds” value is “intermediate plasma stability”.

With `CCCOc1cc(N)ccc1C(=O)OCCN(CC)CC` [propoxycaine], the “Plasma stability of control compounds” value in series [6] is on record as “low plasma stability”.

As for `CO[C@H]1C[C@@H]2CC[C@@H](C)[C@@](O)(O2)C(=O)C(=O)N2CCCC[C@H]2C(=O)O[C@H]([C@H](C)C[C@@H]2CC[C@@H](O)[C@H](OC)C2)CC(=O)[C@H](C)/C=C(\C)[C@@H](O)[C@@H](OC)C(=O)[C@H](C)C[C@H](C)/C=C/C=C/C=C/1C` [rapamycin], in series [7], the “anti-CD3 mediated Akt -S473 phosphorylation” value is “enhances Akt phosphorylation” and the “anti-CD3 mediated S6 phosphorylation” value is recorded as “inhibits S6 phosphorylation”.
